“And” between values parts separate entries of the source, which are not always exact repeats. Equal values may be shown once.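 Five concentrations, 48 hours, 96-well plates. GI50 marks 50% less growth. TGI: concentration producing complete growth inhibition.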

The test system of one experiment is HT29 colon. Briefly: inhibition of tumour cell growth, NCI panel, 48 h.
Regarding `CCc1c(Oc2ccc(C(C)=O)cc2)c2ccccc2[nH]c1=O`, the GI50 was 26.9 µM and the TGI is over 100 µM.

The molecule `Cc1nc2cccc([N+](=O)[O-])c2c(NCCCN(C)C)c1C` had a TGI of 55.3 µM.

In the case of `Cn1c(N2NC(=O)C(N=Nc3ccc(S(N)(=O)=O)cc3)C2=O)nc(-c2ccco2)c(C#N)c1=O` (configuration not stated), the GI50 was 33.4 µM and the TGI is over 50 µM.

Regarding `N#C/C(=C1C=C/C(=N/O)C(Br)=C/1)c1ccccc1`, the GI50 was 3.3 µM and the TGI turned out to be 10.2 µM.

For the molecule `CN(C)CCNc1cc(-c2ccccc2)nc2ccccc12`, the GI50 is 4.01 µM and the TGI was 16.7 µM.

Consider `CC[CH2][Pb]([CH2]CC)([CH2]CC)[O]C(=O)C(F)(F)F`, for which the GI50 is 0.186 µM and the TGI was determined as 0.47 µM.

For `Cc1ccc2c(c1)C(=O)/C(=C/c1ncc([N+](=O)[O-])n1C)O2`, the GI50 is 0.491 µM and the TGI worked out at 3.36 µM.

The molecule `O=C(O)Cn1ccc(=O)c2ccc([N+](=O)[O-])cc21` gave a TGI of over 100 µM.

Consider `Cc1ccc(S(=O)(=O)N(CCOc2ccc(/C(N)=N/Cl)cc2)CCOc2ccc(/C(N)=N\Cl)cc2)cc1`, for which the GI50 is 9.8 µM and the TGI is over 100 µM.

`COc1cc2c3c(n(C)c(=O)c2cc1OC)-c1cc2c(cc1/C3=C\CCCN1C(=O)c3ccccc3C1=O)OCO2`: the GI50 was over 40 µM and the TGI is over 40 µM.

For the molecule `COc1cc(/C=C/c2cc(/C=C/c3ccc(O)c(OC)c3)n(-c3ccccc3)n2)ccc1O`, the GI50 was 0.724 µM and the TGI was determined as 4.1 µM.

The subject of a further experiment is NCI/ADR-RES ovarian. Briefly: inhibition of tumour cell growth, NCI panel, 48 h.
Consider `CCc1c(Oc2ccc(C(C)=O)cc2)c2ccccc2[nH]c1=O`, for which the GI50 is 23 µM and the TGI was over 74 µM.

On to `Cc1nc2cccc([N+](=O)[O-])c2c(NCCCN(C)C)c1C`, for which the TGI is over 100 µM.

For the molecule `Cn1c(N2NC(=O)C(N=Nc3ccc(S(N)(=O)=O)cc3)C2=O)nc(-c2ccco2)c(C#N)c1=O` (configuration not stated), the GI50 was over 50 µM and the TGI is over 50 µM.

`Cc1c(C(=O)N/N=C/c2ccc(Cl)cc2)nnn1-c1ccnc2c(C(F)(F)F)cccc12`: the GI50 was 3.86 µM and the TGI is 13.8 µM.

Take `Cc1nn(CN2CCN(C)CC2)c(=S)n1/N=C/c1cccc2ccccc12`: the GI50 was 19.3 µM and the TGI was determined as 36.3 µM.

With `N#C/C(=C1C=C/C(=N/O)C(Br)=C/1)c1ccccc1`, the GI50 was 2.61 µM and the TGI came out at 84.1 µM.

On to `CN(C)CCNc1cc(-c2ccccc2)nc2ccccc12`, for which the GI50 is 9.11 µM and the TGI was 53.3 µM.

In the case of `CC[CH2][Pb]([CH2]CC)([CH2]CC)[O]C(=O)C(F)(F)F`, the GI50 was 0.298 µM and the TGI came to 1.06 µM.

In the case of `Cc1ccc2c(c1)C(=O)/C(=C/c1ncc([N+](=O)[O-])n1C)O2`, the GI50 is 2.24 µM and the TGI worked out at 7.04 µM.

The molecule `O=C(O)Cn1ccc(=O)c2ccc([N+](=O)[O-])cc21` returned a TGI of over 100 µM.

Take `Cc1ccc(S(=O)(=O)N(CCOc2ccc(/C(N)=N/Cl)cc2)CCOc2ccc(/C(N)=N\Cl)cc2)cc1`: the GI50 was over 100 µM and the TGI was over 100 µM.

For the molecule `COc1ccc2c(c1)c(-c1nc(-c3cn(C)c4ncccc34)cs1)cn2CCCN1CCCCC1`, the GI50 was 1.76 µM and the TGI is 3.46 µM.

As for `O=C1c2cccc(NCCN=Cc3cc(O)ccc3O)c2C(=O)c2c(NCCN=Cc3cc(O)ccc3O)cccc21`, the GI50 was 13.4 µM and the TGI was found to be 35.9 µM.

`CSc1cc(N=Nc2nc3ccccc3s2)c2ccccc2c1O`: the GI50 is 7.17 µM and the TGI was determined as 20.7 µM.

Consider `COc1cc2c3c(n(C)c(=O)c2cc1OC)-c1cc2c(cc1/C3=C\CCCN1C(=O)c3ccccc3C1=O)OCO2`, for which the GI50 is over 40 µM and the TGI is over 40 µM.

`COc1cccc(-c2cc(=O)c3cc(N(C)C)ccc3[nH]2)c1`: the GI50 was 0.0144 µM and 0.00533 µM; the TGI is 0.0318 µM and 0.021 µM and 0.0222 µM.

For `Cn1cc(-c2cnc3ccc(NC(=O)Nc4ccc(F)c(Br)c4)cc3n2)cn1`, the GI50 was 2.21 µM and the TGI came out at 5.41 µM.

With `COc1cc(/C=C/c2cc(/C=C/c3ccc(O)c(OC)c3)n(-c3ccccc3)n2)ccc1O`, the GI50 was 0.0874 µM and the TGI is 3.85 µM.

Another experiment concerns U251 CNS. As to the kind of experiment: inhibition of tumour cell growth, NCI panel, 48 h.
Regarding `CCc1c(Oc2ccc(C(C)=O)cc2)c2ccccc2[nH]c1=O`, the GI50 was 19.2 µM and the TGI is over 82 µM.

Regarding `Cc1nc2cccc([N+](=O)[O-])c2c(NCCCN(C)C)c1C`, the TGI is over 100 µM.

Consider `Cn1c(N2NC(=O)C(N=Nc3ccc(S(N)(=O)=O)cc3)C2=O)nc(-c2ccco2)c(C#N)c1=O` (configuration not stated), for which the GI50 was 42.3 µM and the TGI is over 50 µM.

As for `N#C/C(=C1C=C/C(=N/O)C(Br)=C/1)c1ccccc1`, the GI50 is 2.44 µM and the TGI was 8.01 µM.

Consider `CN(C)CCNc1cc(-c2ccccc2)nc2ccccc12`, for which the GI50 was 3.48 µM and the TGI was determined as 11.2 µM.

As for `CC[CH2][Pb]([CH2]CC)([CH2]CC)[O]C(=O)C(F)(F)F`, the GI50 is 0.156 µM and the TGI is 0.348 µM.

In the case of `Cc1ccc2c(c1)C(=O)/C(=C/c1ncc([N+](=O)[O-])n1C)O2`, the GI50 is 1.93 µM and the TGI turned out to be 5.32 µM.

With `O=C(O)Cn1ccc(=O)c2ccc([N+](=O)[O-])cc21`, the TGI is over 100 µM.

Regarding `Cc1ccc(S(=O)(=O)N(CCOc2ccc(/C(N)=N/Cl)cc2)CCOc2ccc(/C(N)=N\Cl)cc2)cc1`, the GI50 is 3.91 µM and the TGI stood at 16.8 µM.

As to `COc1ccc2c(c1)c(-c1nc(-c3cn(C)c4ncccc34)cs1)cn2CCCN1CCCCC1`, the GI50 is 1.81 µM and the TGI turned out to be 3.23 µM.

Source of the values: PubChem BioAssay (NCI).
